Test results from ChEMBL document CHEMBL5724914, “Linking interpersonal differences in gut microbiota composition and drug biotransformation activity” (2024).

test: (§1) The drug is tested on Z-026 corresponding to metagenome with ENA study accession number: PRJEB37062 and ENA sample accession number: ERS12561825 for biotransformation under anaerobic condition. The drug concentrations were measured over 9 timepoints collected between 0 and 24 hours of incubation by liquid-chromatography-coupled mass spectrometry (LC–MS); settings: 2 µM
Further: call rule not given here.

SMILES	Bacterial Biotransformation
COc1ccccc1OCC(O)CN1CCN(CC(=O)Nc2c(C)cccc2C)CC1 (stereo not given) [RANOLAZINE]	Compound NOT metabolized
Nc1ccc(/N=N/c2ccccc2)c(N)n1 [PHENAZOPYRIDINE]	Compound metabolized
CNCCC(Oc1ccc(C(F)(F)F)cc1)c1ccccc1 (stereo not given) [FLUOXETINE]	Compound NOT metabolized

test: as §1, with “Z-012” for “Z-026”, “ERS12561812” for “ERS12561825”; settings: 2 µM

SMILES	Bacterial Biotransformation
COc1ccccc1OCC(O)CN1CCN(CC(=O)Nc2c(C)cccc2C)CC1 (stereo not given) [RANOLAZINE]	Compound NOT metabolized
Nc1ccc(/N=N/c2ccccc2)c(N)n1 [PHENAZOPYRIDINE]	Compound metabolized
CNCCC(Oc1ccc(C(F)(F)F)cc1)c1ccccc1 (stereo not given) [FLUOXETINE]	Compound NOT metabolized

test: (§2) The drug is tested on Z-011 corresponding to mouse gut metagenome with ENA study accession number: PRJEB37062 and ENA sample accession number: ERS12561811 for biotransformation under anaerobic condition. The drug concentrations were measured over 9 timepoints collected between 0 and 24 hours of incubation by liquid-chromatography-coupled mass spectrometry (LC–MS); settings: 2 µM

SMILES	Bacterial Biotransformation
COc1ccccc1OCC(O)CN1CCN(CC(=O)Nc2c(C)cccc2C)CC1 (stereo not given) [RANOLAZINE]	Compound NOT metabolized
Nc1ccc(/N=N/c2ccccc2)c(N)n1 [PHENAZOPYRIDINE]	Compound metabolized
CNCCC(Oc1ccc(C(F)(F)F)cc1)c1ccccc1 (stereo not given) [FLUOXETINE]	Compound NOT metabolized

test: as §1, with “Z-010” for “Z-026”, “ERS12561810” for “ERS12561825”; settings: 2 µM

SMILES	Bacterial Biotransformation
COc1ccccc1OCC(O)CN1CCN(CC(=O)Nc2c(C)cccc2C)CC1 (stereo not given) [RANOLAZINE]	Compound NOT metabolized
Nc1ccc(/N=N/c2ccccc2)c(N)n1 [PHENAZOPYRIDINE]	Compound metabolized
CNCCC(Oc1ccc(C(F)(F)F)cc1)c1ccccc1 (stereo not given) [FLUOXETINE]	Compound NOT metabolized

test: as §2, with “Z-002” for “Z-011”, “rabbit” for “mouse”, “ERS12561802” for “ERS12561811”; settings: 2 µM

SMILES	Bacterial Biotransformation
COc1ccccc1OCC(O)CN1CCN(CC(=O)Nc2c(C)cccc2C)CC1 (stereo not given) [RANOLAZINE]	Compound metabolized
Nc1ccc(/N=N/c2ccccc2)c(N)n1 [PHENAZOPYRIDINE]	Compound metabolized
CNCCC(Oc1ccc(C(F)(F)F)cc1)c1ccccc1 (stereo not given) [FLUOXETINE]	Compound NOT metabolized

test: as §2, with “WLS-240” for “Z-011”, “human” for “mouse”, “ERS12561773” for “ERS12561811”; settings: 2 µM

SMILES	Bacterial Biotransformation
COc1ccccc1OCC(O)CN1CCN(CC(=O)Nc2c(C)cccc2C)CC1 (stereo not given) [RANOLAZINE]	Compound NOT metabolized
Nc1ccc(/N=N/c2ccccc2)c(N)n1 [PHENAZOPYRIDINE]	Compound metabolized
CNCCC(Oc1ccc(C(F)(F)F)cc1)c1ccccc1 (stereo not given) [FLUOXETINE]	Compound metabolized

test: as §2, with “WLS-170” for “Z-011”, “human” for “mouse”, “ERS12561762” for “ERS12561811”; settings: 2 µM

SMILES	Bacterial Biotransformation
COc1ccccc1OCC(O)CN1CCN(CC(=O)Nc2c(C)cccc2C)CC1 (stereo not given) [RANOLAZINE]	Compound NOT metabolized
Nc1ccc(/N=N/c2ccccc2)c(N)n1 [PHENAZOPYRIDINE]	Compound metabolized
CNCCC(Oc1ccc(C(F)(F)F)cc1)c1ccccc1 (stereo not given) [FLUOXETINE]	Compound NOT metabolized

test: as §2, with “WLS-098” for “Z-011”, “human” for “mouse”, “ERS12561754” for “ERS12561811”; settings: 2 µM

SMILES	Bacterial Biotransformation
COc1ccccc1OCC(O)CN1CCN(CC(=O)Nc2c(C)cccc2C)CC1 (stereo not given) [RANOLAZINE]	Compound NOT metabolized
Nc1ccc(/N=N/c2ccccc2)c(N)n1 [PHENAZOPYRIDINE]	Compound metabolized
CNCCC(Oc1ccc(C(F)(F)F)cc1)c1ccccc1 (stereo not given) [FLUOXETINE]	Compound NOT metabolized

test: as §2, with “WLS-039” for “Z-011”, “human” for “mouse”, “ERS12561746” for “ERS12561811”; settings: 2 µM

SMILES	Bacterial Biotransformation
COc1ccccc1OCC(O)CN1CCN(CC(=O)Nc2c(C)cccc2C)CC1 (stereo not given) [RANOLAZINE]	Compound NOT metabolized
Nc1ccc(/N=N/c2ccccc2)c(N)n1 [PHENAZOPYRIDINE]	Compound metabolized
CNCCC(Oc1ccc(C(F)(F)F)cc1)c1ccccc1 (stereo not given) [FLUOXETINE]	Compound NOT metabolized

test: as §2, with “WLS-038” for “Z-011”, “human” for “mouse”, “ERS12561745” for “ERS12561811”; settings: 2 µM

SMILES	Bacterial Biotransformation
COc1ccccc1OCC(O)CN1CCN(CC(=O)Nc2c(C)cccc2C)CC1 (stereo not given) [RANOLAZINE]	Compound NOT metabolized
Nc1ccc(/N=N/c2ccccc2)c(N)n1 [PHENAZOPYRIDINE]	Compound metabolized
CNCCC(Oc1ccc(C(F)(F)F)cc1)c1ccccc1 (stereo not given) [FLUOXETINE]	Compound NOT metabolized

test: as §2, with “WLS-027” for “Z-011”, “human” for “mouse”, “ERS12561744” for “ERS12561811”; settings: 2 µM

SMILES	Bacterial Biotransformation
COc1ccccc1OCC(O)CN1CCN(CC(=O)Nc2c(C)cccc2C)CC1 (stereo not given) [RANOLAZINE]	Compound NOT metabolized
Nc1ccc(/N=N/c2ccccc2)c(N)n1 [PHENAZOPYRIDINE]	Compound metabolized
CNCCC(Oc1ccc(C(F)(F)F)cc1)c1ccccc1 (stereo not given) [FLUOXETINE]	Compound NOT metabolized

test: as §2, with “WLS-010” for “Z-011”, “human” for “mouse”, “ERS12561743” for “ERS12561811”; settings: 2 µM

SMILES	Bacterial Biotransformation
COc1ccccc1OCC(O)CN1CCN(CC(=O)Nc2c(C)cccc2C)CC1 (stereo not given) [RANOLAZINE]	Compound NOT metabolized
Nc1ccc(/N=N/c2ccccc2)c(N)n1 [PHENAZOPYRIDINE]	Compound metabolized
CNCCC(Oc1ccc(C(F)(F)F)cc1)c1ccccc1 (stereo not given) [FLUOXETINE]	Compound NOT metabolized

test: as §2, with “WLS-007” for “Z-011”, “human” for “mouse”, “ERS12561742” for “ERS12561811”; settings: 2 µM

SMILES	Bacterial Biotransformation
COc1ccccc1OCC(O)CN1CCN(CC(=O)Nc2c(C)cccc2C)CC1 (stereo not given) [RANOLAZINE]	Compound NOT metabolized
Nc1ccc(/N=N/c2ccccc2)c(N)n1 [PHENAZOPYRIDINE]	Compound metabolized
CNCCC(Oc1ccc(C(F)(F)F)cc1)c1ccccc1 (stereo not given) [FLUOXETINE]	Compound NOT metabolized

settings: human gut metagenome, 24 h, 2 µM

SMILES	Bacterial Biotransformation
COc1ccccc1OCC(O)CN1CCN(CC(=O)Nc2c(C)cccc2C)CC1 (stereo not given) [RANOLAZINE]	Compound NOT metabolized
Nc1ccc(/N=N/c2ccccc2)c(N)n1 [PHENAZOPYRIDINE]	Compound metabolized
CNCCC(Oc1ccc(C(F)(F)F)cc1)c1ccccc1 (stereo not given) [FLUOXETINE]	Compound NOT metabolized

settings: human gut metagenome, 24 h, 2 µM; remark: another data set of the same source

SMILES	Bacterial Biotransformation
COc1ccccc1OCC(O)CN1CCN(CC(=O)Nc2c(C)cccc2C)CC1 (stereo not given) [RANOLAZINE]	Compound NOT metabolized
Nc1ccc(/N=N/c2ccccc2)c(N)n1 [PHENAZOPYRIDINE]	Compound metabolized
CNCCC(Oc1ccc(C(F)(F)F)cc1)c1ccccc1 (stereo not given) [FLUOXETINE]	Compound NOT metabolized

settings: human gut metagenome, 24 h, 2 µM; remark: another data set of the same source

SMILES	Bacterial Biotransformation
COc1ccccc1OCC(O)CN1CCN(CC(=O)Nc2c(C)cccc2C)CC1 (stereo not given) [RANOLAZINE]	Compound NOT metabolized
Nc1ccc(/N=N/c2ccccc2)c(N)n1 [PHENAZOPYRIDINE]	Compound metabolized
CNCCC(Oc1ccc(C(F)(F)F)cc1)c1ccccc1 (stereo not given) [FLUOXETINE]	Compound NOT metabolized

settings: human gut metagenome, 24 h, 2 µM; remark: another data set of the same source

SMILES	Bacterial Biotransformation
COc1ccccc1OCC(O)CN1CCN(CC(=O)Nc2c(C)cccc2C)CC1 (stereo not given) [RANOLAZINE]	Compound NOT metabolized
Nc1ccc(/N=N/c2ccccc2)c(N)n1 [PHENAZOPYRIDINE]	Compound metabolized
CNCCC(Oc1ccc(C(F)(F)F)cc1)c1ccccc1 (stereo not given) [FLUOXETINE]	Compound NOT metabolized

settings: human gut metagenome, 24 h, 2 µM; remark: another data set of the same source

SMILES	Bacterial Biotransformation
COc1ccccc1OCC(O)CN1CCN(CC(=O)Nc2c(C)cccc2C)CC1 (stereo not given) [RANOLAZINE]	Compound NOT metabolized
Nc1ccc(/N=N/c2ccccc2)c(N)n1 [PHENAZOPYRIDINE]	Compound metabolized
CNCCC(Oc1ccc(C(F)(F)F)cc1)c1ccccc1 (stereo not given) [FLUOXETINE]	Compound NOT metabolized

settings: human gut metagenome, 24 h, 2 µM; remark: another data set of the same source

SMILES	Bacterial Biotransformation
COc1ccccc1OCC(O)CN1CCN(CC(=O)Nc2c(C)cccc2C)CC1 (stereo not given) [RANOLAZINE]	Compound NOT metabolized
Nc1ccc(/N=N/c2ccccc2)c(N)n1 [PHENAZOPYRIDINE]	Compound metabolized
CNCCC(Oc1ccc(C(F)(F)F)cc1)c1ccccc1 (stereo not given) [FLUOXETINE]	Compound NOT metabolized

settings: human gut metagenome, 24 h, 2 µM; remark: another data set of the same source

SMILES	Bacterial Biotransformation
COc1ccccc1OCC(O)CN1CCN(CC(=O)Nc2c(C)cccc2C)CC1 (stereo not given) [RANOLAZINE]	Compound NOT metabolized
Nc1ccc(/N=N/c2ccccc2)c(N)n1 [PHENAZOPYRIDINE]	Compound metabolized
CNCCC(Oc1ccc(C(F)(F)F)cc1)c1ccccc1 (stereo not given) [FLUOXETINE]	Compound metabolized
